pKi: −log10 of the molar value. Several values for one entry are separate records, joined by “and”; a condition that tells them apart may be missing. Equal entries are not always repeated.
Columns and labels:
hCA I = hCA I (Homo sapiens, UniProt P00915); assay: stopped-flow CO2 hydrase assay, hCA I; assay type: biochemical; details: for pKi: stopped-flow CO2 hydrase assay, mean from 3 different assays
hCA II = hCA II (Homo sapiens, UniProt P00918); assay: stopped-flow CO2 hydrase assay, hCA II; assay type: biochemical; details: for pKi: stopped-flow CO2 hydrase assay, mean from 3 different assays, read-out: KI hCAII; for selectivity index (SI) toward hCA I / selectivity index (SI) towards hCA IX / selectivity index (SI) towards hCA XII: hCA II inhibitor; for selectivity index (SI) toward hCA I: hCA II versus hCA I; for selectivity index (SI) towards hCA IX: hCA II versus hCA IX; for selectivity index (SI) towards hCA XII: hCA II versus hCA XII
hCA IX = hCA IX (Homo sapiens, UniProt Q16790); assay: stopped-flow CO2 hydrase assay, hCA IX; assay type: biochemical; details: for selectivity index (SI) for hCA I: hCA IX inhibitor, hCA IX versus hCA I; for pKi: stopped-flow CO2 hydrase assay, mean from 3 different assays
hCA XII = hCA XII (Homo sapiens, UniProt O43570); assay: stopped-flow CO2 hydrase assay, hCA XII; assay type: biochemical; details: for pKi: stopped-flow CO2 hydrase assay, mean from 3 different assays
Sequence of hCA XII (O43570 25-354): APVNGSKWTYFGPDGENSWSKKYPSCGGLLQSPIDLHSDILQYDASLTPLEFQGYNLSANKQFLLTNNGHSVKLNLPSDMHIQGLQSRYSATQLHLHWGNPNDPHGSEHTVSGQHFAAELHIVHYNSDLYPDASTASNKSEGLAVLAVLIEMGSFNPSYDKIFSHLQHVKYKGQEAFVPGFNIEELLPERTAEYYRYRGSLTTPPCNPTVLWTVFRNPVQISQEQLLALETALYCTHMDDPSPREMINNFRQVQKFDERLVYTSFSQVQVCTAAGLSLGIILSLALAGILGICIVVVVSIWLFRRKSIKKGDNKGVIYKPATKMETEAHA

β-CA from E. coli = β-CA from E. coli (Escherichia coli, UniProt P61517); assay: stopped-flow CO2 hydrase assay, E. coli β-CA; assay type: biochemical
Sequence of β-CA from E. coli (P61517 whole entry): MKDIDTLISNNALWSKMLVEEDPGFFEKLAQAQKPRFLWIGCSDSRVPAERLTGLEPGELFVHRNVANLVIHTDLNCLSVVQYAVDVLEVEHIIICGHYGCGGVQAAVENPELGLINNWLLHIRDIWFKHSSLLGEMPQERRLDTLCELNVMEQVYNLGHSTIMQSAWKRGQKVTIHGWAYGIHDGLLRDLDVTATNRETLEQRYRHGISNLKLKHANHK

γ-CA from E. coli = γ-CA from E. coli (Escherichia coli, UniProt P0A9W9); assay type: biochemical; details: for pKi: stopped-flow CO2 hydrase assay, mean from 3 different assays; for selectivity index (SI) against BpsCAβ: E. coli γ versus BpsCAβ; for selectivity index (SI) against BpsCAγ: E. coli γ versus BpsCAγ; for selectivity index (SI) against E. coli β: E. coli γ versus E. coli β; for selectivity index (SI) against PgiCAγ: E. coli γ versus PgiCAγ
Sequence of γ-CA from E. coli (P0A9W9 whole entry): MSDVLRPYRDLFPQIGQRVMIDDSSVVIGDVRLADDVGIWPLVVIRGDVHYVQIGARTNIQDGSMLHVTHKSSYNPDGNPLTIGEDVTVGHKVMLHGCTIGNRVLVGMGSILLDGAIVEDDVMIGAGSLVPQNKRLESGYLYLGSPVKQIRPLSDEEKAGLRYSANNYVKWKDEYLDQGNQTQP

[1] = molecular target: β-CA from Burkholderia pseudomallei (BpsCAβ) (Burkholderia pseudomallei, UniProt Q63Y17); assay type: biochemical; details: for pKi: read-out: KI BpsCAβ
Sequence of β-CA from Burkholderia pseudomallei (BpsCAβ) (Q63Y17 1-256): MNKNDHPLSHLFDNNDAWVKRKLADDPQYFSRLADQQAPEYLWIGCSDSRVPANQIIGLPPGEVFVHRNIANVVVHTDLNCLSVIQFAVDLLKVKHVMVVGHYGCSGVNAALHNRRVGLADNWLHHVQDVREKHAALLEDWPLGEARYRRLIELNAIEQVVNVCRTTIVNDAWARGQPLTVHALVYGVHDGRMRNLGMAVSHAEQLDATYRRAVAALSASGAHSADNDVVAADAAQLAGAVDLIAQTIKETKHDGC

BpsCAγ = BpsCAγ (Burkholderia pseudomallei, UniProt Q63SQ4); assay type: biochemical; details: read-out: KI BpsCAγ
Sequence of BpsCAγ (Q63SQ4 1-174): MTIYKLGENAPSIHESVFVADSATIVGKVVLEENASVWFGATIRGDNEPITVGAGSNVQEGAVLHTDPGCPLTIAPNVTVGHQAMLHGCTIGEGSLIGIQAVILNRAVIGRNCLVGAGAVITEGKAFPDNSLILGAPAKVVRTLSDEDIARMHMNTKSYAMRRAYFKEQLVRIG

[2] = molecular target: γ-CA from Porphyromonas gingivalis (PgiCAγ) (Porphyromonas gingivalis, UniProt Q7MV79); assay type: biochemical; details: for pKi: stopped-flow CO2 hydrase assay, mean from 3 different assays
Sequence of γ-CA from Porphyromonas gingivalis (PgiCAγ) (Q7MV79 entry or part of it): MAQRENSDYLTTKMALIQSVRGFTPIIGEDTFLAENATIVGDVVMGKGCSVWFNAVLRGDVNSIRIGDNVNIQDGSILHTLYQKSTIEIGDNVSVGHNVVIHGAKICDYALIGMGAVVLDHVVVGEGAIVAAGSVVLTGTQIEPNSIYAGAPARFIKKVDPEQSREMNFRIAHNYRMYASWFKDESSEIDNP

[3] = molecular target: β-CA from Vibrio cholerae (VhCAβ) (Vibrio cholerae, UniProt A0A086SLX8); assay: biochemical
Sequence of β-CA from Vibrio cholerae (VhCAβ) (A0A086SLX8 entry or part of it): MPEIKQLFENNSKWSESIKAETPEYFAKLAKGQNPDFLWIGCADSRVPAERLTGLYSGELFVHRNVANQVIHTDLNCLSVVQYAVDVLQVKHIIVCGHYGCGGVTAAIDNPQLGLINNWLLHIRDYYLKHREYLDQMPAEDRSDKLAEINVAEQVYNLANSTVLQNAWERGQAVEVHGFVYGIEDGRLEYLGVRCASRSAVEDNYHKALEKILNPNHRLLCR

Sequence of hCA I (P00915 whole entry): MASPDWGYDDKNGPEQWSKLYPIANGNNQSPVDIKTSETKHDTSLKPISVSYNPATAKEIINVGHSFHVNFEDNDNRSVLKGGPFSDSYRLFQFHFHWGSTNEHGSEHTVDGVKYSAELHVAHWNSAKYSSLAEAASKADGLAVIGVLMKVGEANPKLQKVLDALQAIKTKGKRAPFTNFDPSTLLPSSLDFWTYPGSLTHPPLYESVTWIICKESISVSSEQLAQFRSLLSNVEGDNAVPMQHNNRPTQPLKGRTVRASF

SMILES: COC(=O)c1cn(CCS(N)(=O)=O)cc2c(=O)[nH]nc1-2 [Compound 1a, Methyl 3-oxo-5-(2-sulfamoylethyl)-3,5-dihydro-2H-pyrazolo[4,3-c]pyridine-7-carboxylate]
- pKi (hCA I): 5.10
- pKi (hCA II): 5.13
- selectivity index (SI) for hCA I (hCA IX): 81.8
- pKi (hCA IX): 7.01
- pKi (hCA XII): 6.55
- pKi (β-CA from E. coli): 6.06
- pKi (γ-CA from E. coli): 7.21
- pKi [1]: 6.18
- pKi (BpsCAγ): 6.04
- pKi [2]: 6.11
- pKi [3]: 5.63
- melting point: > 300 °C

SMILES: COC(=O)c1cn(-c2ccc(S(N)(=O)=O)cc2)cc2c(=O)[nH]nc1-2 [Compound 1b, Methyl 3-oxo-5-(4-sulfamoylphenyl)-3,5-dihydro-2H-pyrazolo[4,3-c]pyridine-7-carboxylate]
- decreased activity against hCA I (hCA I; compared with 1f): ~ 2.7 times
- pKi (hCA I): 6.80
- pKi (hCA II): 7.29
- pKi (hCA IX): 6.50
- pKi (hCA XII): 6.45
- pKi (β-CA from E. coli): 5.46
- selectivity index (SI) against BpsCAβ (γ-CA from E. coli; E. coli γ-CA inhibitor): 3.96
- selectivity index (SI) against BpsCAγ (γ-CA from E. coli; E. coli γ-CA inhibitor): 8.88
- selectivity index (SI) against E. coli β (γ-CA from E. coli; E. coli γ-CA inhibitor): 59.8
- selectivity index (SI) against PgiCAγ (γ-CA from E. coli; E. coli γ-CA inhibitor): 1.59 and 1.57 and 1.5
- selectivity index (SI) against VhCAβ (γ-CA from E. coli; E. coli γ-CA inhibitor, E. coli γ versus VhCAβ): 14.6
- pKi (γ-CA from E. coli): 7.24
- pKi [1]: 6.64
- pKi (BpsCAγ): 6.29
- pKi [2]: 7.04
- pKi [3]: 6.07
- melting point: > 300 °C

SMILES: COC(=O)c1cn(-c2cccc(S(N)(=O)=O)c2)cc2c(=O)[nH]nc1-2 [Compound 1c, Methyl 3-oxo-5-(3-sulfamoylphenyl)-3,5-dihydro-2H-pyrazolo[4,3-c]pyridine-7-carboxylate]
- pKi (hCA I): 5.84
- pKi (hCA II): 6.61
- pKi (hCA IX): 6.23
- pKi (hCA XII): 6.84
- pKi (β-CA from E. coli): 5.42
- pKi (γ-CA from E. coli): 7.10
- pKi [1]: 6.10
- pKi (BpsCAγ): 6.21
- pKi [2]: 6.20
- pKi [3]: 6.04
- melting point: > 300 °C

SMILES: COC(=O)C1=CN(Cc2ccc(S(N)(=O)=O)cc2)C=C2C(=O)N=NC21 (stereo not drawn) [Compound 1d, 3-oxo-5-(4-sulfamoylbenzyl)-3,5-dihydro-2H-pyrazolo[4,3-c]pyridine-7-carboxylate]
- melting point: > 300 °C

SMILES: COC(=O)c1cn(CCc2ccc(S(N)(=O)=O)cc2)cc2c(=O)[nH]nc1-2 [Compound 1e, Methyl 3-oxo-5-(4-sulfamoylphenethyl)-3,5-dihydro-2H-pyrazolo[4,3-c]pyridine-7-carboxylate]
- pKi (hCA I): 6.06
- pKi (hCA II): 6.18
- pKi (hCA IX): 6.07
- pKi (hCA XII): 6.40
- pKi (β-CA from E. coli): 5.50
- selectivity index (SI) against BpsCAβ (γ-CA from E. coli; E. coli γ-CA inhibitor): 3.96
- selectivity index (SI) against BpsCAγ (γ-CA from E. coli; E. coli γ-CA inhibitor): 8.88
- selectivity index (SI) against E. coli β (γ-CA from E. coli; E. coli γ-CA inhibitor): 59.8
- selectivity index (SI) against PgiCAγ (γ-CA from E. coli; E. coli γ-CA inhibitor): 1.59
- pKi (γ-CA from E. coli): 7.24
- pKi [1]: 6.17
- pKi (BpsCAγ): 5.87
- pKi [2]: 7.02
- pKi [3]: 6.08
- melting point: > 300 °C

SMILES: COC(=O)c1cn(CC(=O)Nc2ccc(S(N)(=O)=O)cc2)cc2c(=O)[nH]nc1-2 [Compound 1f]
- pKi (hCA I): 7.23
- selectivity index (SI) toward hCA I (hCA II): 9
- selectivity index (SI) towards hCA IX (hCA II): 137.5
- selectivity index (SI) towards hCA XII (hCA II): 71.9
- pKi (hCA II): 8.18
- pKi (hCA IX): 6.04
- pKi (hCA XII): 6.32
- pKi (β-CA from E. coli): 5.44
- pKi (γ-CA from E. coli): 7.18
- pKi [1]: 6.63
- pKi (BpsCAγ): 5.66
- pKi [2]: 6.18
- pKi [3]: 6.33
- melting point: > 300 °C

SMILES: CC(=O)N1CC(Nc2ccc(S(N)(=O)=O)cc2)=CC1=O [Compound 1g, 4-((1-Acetyl-5-oxo-2,5-dihydro-1H-pyrrol-3-yl)amino)benzenesulfonamide]
- pKi (hCA I): 7.18
- pKi (hCA II): 7.38
- pKi (hCA IX): 6.53
- pKi (hCA XII): 6.29
- pKi (β-CA from E. coli): 6.34
- pKi (γ-CA from E. coli): 6.69
- pKi [1]: 6.18
- pKi (BpsCAγ): 7.01
- selectivity index (SI) towards VhCAβ ([2]; PgiCAγ inhibitor, PgiCAγ versus VhCAβ): 17.4
- pKi [2]: 7.08
- pKi [3]: 5.84
- melting point: 285 to 287 °C

SMILES: CC(=O)N1CC(Nc2cccc(S(N)(=O)=O)c2)=CC1=O [Compound 1h, 3-((1-Acetyl-5-oxo-2,5-dihydro-1H-pyrrol-3-yl)amino)benzenesulfonamide]
- pKi (hCA I): 6.87
- pKi (hCA II): 7.21
- pKi (hCA IX): 7.03
- pKi (hCA XII): 6.15
- pKi (β-CA from E. coli): 6.15
- pKi (γ-CA from E. coli): 6.28
- pKi [1]: 5.53
- pKi (BpsCAγ): 6.08
- pKi [2]: 7.05
- pKi [3]: 5.58

SMILES: Cc1cc(O)cc(=O)n1CCS(N)(=O)=O [Compound 1i, 2-(4-hydroxy-6-methyl-2-oxopyridin-1(2H)-yl)ethane-1-sulfonamide]
- pKi (hCA I): 5.26
- pKi (hCA II): 5.17
- selectivity index (SI) for hCA I (hCA IX): 74.9
- pKi (hCA IX): 7.10
- pKi (hCA XII): 6.98
- pKi (β-CA from E. coli): 5.52
- pKi (γ-CA from E. coli): 7.03
- selectivity index (SI) against VhCAβ [1]: 23.2
- selectivity index (SI) against the β-CA from E. coli [1]: 31.6
- pKi [1]: 7.02
- pKi (BpsCAγ): 6.72
- pKi [2]: 7.02
- pKi [3]: 5.65
- melting point: 243 to 245 °C

SMILES: NS(=O)(=O)CCNC=C1C(=O)Oc2ccccc2C1=O [Compound 1j, 2-(((2,4-dioxochroman-3-ylidene)methyl)amino)ethane-1-sulfonamide]
- pKi (hCA I): 5.41
- pKi (hCA II): 5.24
- pKi (hCA IX): 7.01
- pKi (hCA XII): 6.55
- pKi (β-CA from E. coli): 7.02
- pKi (γ-CA from E. coli): 7.17
- pKi [1]: 6.10
- pKi (BpsCAγ): 6.20
- pKi [2]: 7.07
- pKi [3]: 6.19
- melting point: 197 to 199 °C

SMILES: CC12CC(c3ccccc3O1)C(C(N)=O)C(=O)N2CCc1ccc(S(N)(=O)=O)cc1 (stereo not drawn) [Compound 1k, 2-methyl-4-oxo-3-(4-sulfamoylphenethyl)-3,4,5,6-tetrahydro-2H-2,6-methanobenzo[g][1,3]oxazocine-5-carboxamide]
- pKi (hCA I): 7.05
- selectivity index (SI) toward hCA I (hCA II): 15.8
- selectivity index (SI) towards hCA IX (hCA II): 75.25
- selectivity index (SI) towards hCA XII (hCA II): 6
- pKi (hCA II): 8.25
- pKi (hCA IX): 6.38
- selectivity index (SI) towards hCA IX (hCA XII; hCA XII inhibitor, hCA XII versus hCA IX): 12.2
- pKi (hCA XII): 7.46
- pKi (β-CA from E. coli): 5.41
- pKi (γ-CA from E. coli): 7.20
- pKi [1]: 6.67
- pKi (BpsCAγ): 6.02
- pKi [2]: 6.70
- pKi [3]: 6.45
- melting point: 225 to 227 °C

Reference: PMC8955975, “Pyrazolo[4,3-c]pyridine Sulfonamides as Carbonic Anhydrase Inhibitors: Synthesis, Biological and In Silico Studies” (Pharmaceuticals, 2022)
